Strand notation (5' to 3'): a small letter for the sugar, then the base; units joined by * are phosphorothioate-linked, units joined directly phosphodiester-linked; [ ] holds rarer units or linkages, { } end groups; capitals alone tell only the bases. k = constrained ethyl (cEt); [5mC] = 5-methylcytosine; d = 2'-deoxy (DNA)
System: Yap1 mRNA
Test: Dose-dependent inhibition of human Yap1 in A-431 cells (Example 6, 5,000 cells per well, RTS4814)
Assay type: cell-based
Conditions: for % UTC 148 nM / % UTC 444 nM / % UTC 1333 nM / % UTC 4000 nM: approximately 48 hours; for Yap1 mRNA, % UTC: 48 hours
Protocol: Modified oligonucleotides described in the studies above were tested at various doses in A-431 cells. Cultured A-431 cells at a density of 5,000 cells per well were treated using free uptake with modified oligonucleotides diluted to concentrations described in the tables below. After approximately 48 hours, Yap1 mRNA levels were measured as previously described using the Human Yap1 primer-probe set RTS4814. Yap1 mRNA levels were normalized to total RNA content, as measured by RIBOGREEN®. Results are presented in the tables below as percent control of the amount of Yap1 mRNA relative to untreated control cells (% UTC). IC50s were calculated using a linear regression on a log/linear plot of the data in excel.

[1] = Table 53, A-431 cells, Yap1 mRNA, linear regression on a log/linear plot
[2] = Table 53, A-431 cells, free uptake, 148 nM, RTS4814
[3] = Table 53, A-431 cells, free uptake, 444 nM, RTS4814
[4] = Table 53, A-431 cells, free uptake, 1333 nM, RTS4814
[5] = Table 53, A-431 cells, free uptake, 4000 nM, RTS4814
[6] = Table 54, A-431 cells, Yap1 mRNA, linear regression on a log/linear plot
[7] = Table 54, A-431 cells, free uptake, 148 nM, RTS4814
[8] = Table 54, A-431 cells, free uptake, 444 nM, RTS4814
[9] = Table 54, A-431 cells, free uptake, 1333 nM, RTS4814
[10] = Table 54, A-431 cells, free uptake, 4000 nM, RTS4814
[11] = Table 55, 148 nM, free uptake, A-431 cells 5,000 cells per well, RTS4814
[12] = Table 55, 444 nM, free uptake, A-431 cells 5,000 cells per well, RTS4814
[13] = Table 55, 1333 nM, free uptake, A-431 cells 5,000 cells per well, RTS4814
[14] = Table 55, 4000 nM, free uptake, A-431 cells 5,000 cells per well, RTS4814
[15] = Table 55, A-431 cells 5,000 cells per well, free uptake, RTS4814

Row | Substance | IC50 [1] | % UTC 148 nM [2] | % UTC 444 nM [3] | % UTC 1333 nM [4] | % UTC 4000 nM [5] | IC50 [6] | % UTC 148 nM [7] | % UTC 444 nM [8] | % UTC 1333 nM [9] | % UTC 4000 nM [10] | Yap1 mRNA, % UTC [11] | Yap1 mRNA, % UTC [12] | Yap1 mRNA, % UTC [13] | Yap1 mRNA, % UTC [14] | IC50 [15]
1 | 715478 (kA*k[5mC]*k[5mC]*dA*dT*dT*dA*dT*dT*dA*d[5mC]*dT*d[5mC]*k[5mC]*kT*kG; antisense) [compound 715478] | 0.4 µM | 70 % UTC | 47 % UTC | 29 % UTC | 16 % UTC | 0.6 µM | 72 % UTC | 59 % UTC | 31 % UTC | 18 % UTC | 76 % UTC | 56 % UTC | 32 % UTC | 18 % UTC | 0.6 µM
2 | 716381 (kT*kG*kT*d[5mC]*dT*dG*dA*dT*d[5mC]*dG*dA*dT*dG*kT*kG*kA; antisense) [compound 716381] |  |  |  |  |  |  |  |  |  |  | 106 % UTC | 90 % UTC | 80 % UTC | 44 % UTC | 4.2 µM
3 | 715523 (kA*kT*k[5mC]*dA*dG*dT*dA*d[5mC]*dT*dG*dG*d[5mC]*d[5mC]*kT*kA*kT; antisense) [compound 715523] | 3.2 µM | 100 % UTC | 62 % UTC | 75 % UTC | 44 % UTC |  |  |  |  |  |  |  |  |  | 
4 | 716438 (antisense kA*kT*kT*dT*dT*dT*dG*dG*d[5mC]*dT*dT*dG*dT*k[5mC]*kA*kG) [compound 716438] |  |  |  |  |  |  |  |  |  |  | 93 % UTC | 75 % UTC | 62 % UTC | 49 % UTC | 3.4 µM
5 | 715414 (kA*kA*k[5mC]*dA*dT*dG*d[5mC]*dT*dG*dT*dG*dG*dA*kG*kT*k[5mC]; antisense) [compound 715414] |  |  |  |  |  | > 4 µM | 91 % UTC | 91 % UTC | 102 % UTC | 67 % UTC |  |  |  |  | 
6 | 716543 (antisense kT*kA*kT*dT*dT*dG*dT*dA*dG*d[5mC]*dA*dA*dA*kG*kT*k[5mC]) [compound 716543] |  |  |  |  |  |  |  |  |  |  | 62 % UTC | 99 % UTC | 79 % UTC | 64 % UTC | > 4 µM
7 | 715501 (kA*kA*kA*dA*dG*d[5mC]*d[5mC]*dT*dT*dA*dG*dA*dG*kT*k[5mC]*kA; antisense) [compound 715501] | > 4 µM | 82 % UTC | 82 % UTC | 68 % UTC | 56 % UTC |  |  |  |  |  |  |  |  |  | 
8 | 716479 (antisense kG*kA*kA*d[5mC]*dA*dA*dT*d[5mC]*dT*dT*dG*dA*dA*kG*kG*k[5mC]) [compound 716479] |  |  |  |  |  |  |  |  |  |  | 88 % UTC | 78 % UTC | 55 % UTC | 57 % UTC | > 4 µM
9 | 715423 (k[5mC]*k[5mC]*kA*dT*dG*dT*dT*dG*dT*dT*dG*dT*d[5mC]*kT*kG*kA; antisense) [compound 715423] | > 4 µM | 83 % UTC | 91 % UTC | 80 % UTC | 57 % UTC |  |  |  |  |  |  |  |  |  | 
10 | 716496 (antisense kG*kA*kA*dG*dA*dG*dA*dT*dT*dT*dT*dA*dT*kG*k[5mC]*k[5mC]) [compound 716496] |  |  |  |  |  | > 4 µM | 74 % UTC | 87 % UTC | 64 % UTC | 49 % UTC |  |  |  |  | 
11 | 715471 (kT*kA*kT*d[5mC]*dT*dA*dG*d[5mC]*dT*dT*dG*dG*dT*kG*kG*k[5mC]; antisense) [compound 715471] |  |  |  |  |  | > 4 µM | 82 % UTC | 103 % UTC | 105 % UTC | 79 % UTC |  |  |  |  | 
12 | 716548 (antisense kG*kA*kG*dT*dT*dT*d[5mC]*dA*dA*d[5mC]*dA*d[5mC]*dT*kG*kA*kT) [compound 716548] |  |  |  |  |  |  |  |  |  |  | 99 % UTC | 89 % UTC | 79 % UTC | 67 % UTC | > 4 µM
13 | 715486 (kT*kA*k[5mC]*dT*dT*d[5mC]*dA*dT*dA*dG*d[5mC]*dT*dT*kA*kT*kA; antisense) [compound 715486] | > 4 µM | 93 % UTC | 89 % UTC | 81 % UTC | 56 % UTC |  |  |  |  |  |  |  |  |  | 
14 | 716370 (k[5mC]*kA*kG*dT*dG*d[5mC]*d[5mC]*dT*dG*d[5mC]*dA*dT*d[5mC]*kA*kG*kT; antisense) [compound 716370] |  |  |  |  |  | > 4 µM | 81 % UTC | 79 % UTC | 69 % UTC | 49 % UTC |  |  |  |  | 
15 | 716407 (antisense k[5mC]*kT*kT*dA*dG*dT*d[5mC]*d[5mC]*dA*d[5mC]*dT*dG*dT*k[5mC]*kT*kG) [compound 716407] |  |  |  |  |  |  |  |  |  |  | 84 % UTC | 75 % UTC | 72 % UTC | 39 % UTC | 3 µM
16 | 716493 (antisense kA*k[5mC]*kA*dT*dT*dG*dA*dA*dA*dG*dA*d[5mC]*d[5mC]*k[5mC]*kT*kT) [compound 716493] |  |  |  |  |  | > 4 µM | 95 % UTC | 97 % UTC | 86 % UTC | 72 % UTC |  |  |  |  | 
17 | 716419 (antisense kT*kT*kT*d[5mC]*d[5mC]*dG*dG*dT*dG*d[5mC]*dA*dT*dG*kT*kG*kT) [compound 716419] |  |  |  |  |  |  |  |  |  |  | 89 % UTC | 84 % UTC | 49 % UTC | 47 % UTC | 2.5 µM
18 | 715490 (k[5mC]*k[5mC]*kA*dA*d[5mC]*dT*dA*dT*dT*dA*d[5mC]*dT*dT*k[5mC]*kA*kT; antisense) [compound 715490] | 4.1 µM | 98 % UTC | 89 % UTC | 76 % UTC | 43 % UTC |  |  |  |  |  |  |  |  |  | 
19 | 716445 (antisense kG*kT*kA*dT*dG*dT*dG*dG*d[5mC]*dA*dA*dT*dA*kA*kT*kT) [compound 716445] |  |  |  |  |  | 2.6 µM | 89 % UTC | 82 % UTC | 56 % UTC | 44 % UTC |  |  |  |  | 
20 | 716500 (antisense kA*kA*k[5mC]*dT*dT*d[5mC]*dT*dT*dA*d[5mC]*dT*dT*d[5mC]*k[5mC]*kA*kA) [compound 716500] |  |  |  |  |  |  |  |  |  |  | 88 % UTC | 96 % UTC | 79 % UTC | 46 % UTC | > 4 µM
21 | 716537 (antisense kA*kT*kG*dT*dG*d[5mC]*dT*d[5mC]*d[5mC]*dA*dT*d[5mC]*dA*kA*k[5mC]*k[5mC]) [compound 716537] |  |  |  |  |  |  |  |  |  |  | 120 % UTC | 96 % UTC | 88 % UTC | 63 % UTC | > 4 µM
22 | 716387 (antisense kT*kA*kT*dG*dG*dT*dT*dT*dA*dT*dA*dT*dA*kG*kT*kA) [compound 716387] |  |  |  |  |  |  |  |  |  |  | 94 % UTC | 94 % UTC | 80 % UTC | 67 % UTC | > 4 µM

Source: patent US11214803B2, “Modulators of YAP1 expression” (Ionis Pharmaceuticals, Inc., priority 2019, dated 2022)
